# Source: patent US8193191B2, “Urotensin II receptor antagonists” (Janssen Pharmaceutica N.V., priority 2006, dated 2012)
# “And” between values parts separate entries of the source, which are not always exact repeats. Equal entries are not always repeated. Where two headings read alike, the source gives them in different places.
# Biological target: T1, rat GPR14 (U-II receptor) (Rattus norvegicus, UniProt P49684)
# T1 construct: expressed in transfected cells
# T1 sequence (P49684 1-386): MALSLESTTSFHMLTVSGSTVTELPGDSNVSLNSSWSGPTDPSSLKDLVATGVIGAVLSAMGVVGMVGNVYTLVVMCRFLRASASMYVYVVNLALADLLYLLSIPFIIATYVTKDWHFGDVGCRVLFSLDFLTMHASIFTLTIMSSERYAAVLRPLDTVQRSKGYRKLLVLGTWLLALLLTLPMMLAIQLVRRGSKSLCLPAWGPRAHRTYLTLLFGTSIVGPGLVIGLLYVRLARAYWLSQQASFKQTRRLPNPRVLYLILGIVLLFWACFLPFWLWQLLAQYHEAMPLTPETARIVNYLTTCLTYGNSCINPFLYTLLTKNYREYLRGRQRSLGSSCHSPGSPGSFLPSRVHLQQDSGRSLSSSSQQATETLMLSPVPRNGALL
# Test: Rat UII Calcium Mobilization FLIPR Assay
# Type: cell-based
# Settings: for inhibition at 10 µM / inhibition at 50 µM: CHO, 5 min, agonist-induced Ca2+ mobilization (FLIPR), CHO cells with rat UII receptor; for inhibition at 10 µM: 10 μM compound, read-out: % I @ 10; for inhibition at 50 µM: 50 μM compound, read-out: % I @ 50
# Excerpt: To derive these cells, the complete coding sequence of rat U-II (Genbank Accession No. U32673) was amplified by nested PCR from rat heart marathon-Ready cDNA. […] The PCR products were cloned into pcDNA3 (Invitrogen) digested with EcoR I and Xba I. Clones containing rat U-II receptor were verified by complete sequencing of the U-II receptor insert to ensure a lack of PCR-introduced errors. The constructed vector was transfected into CHO cells by using lipofectamine (GIBCO BRL). CHO cells with high expression of rat U-II receptor were selected and established as stable cell lines by using G418. CHO cells were seeded at 25,000 cells per well into 96-well, black-wall, clear-bottom microtiter plates 24 h before assay. Cells in culture media (DMEM/F12 containing 15 mM HEPES, L-glutamine, pyridoxine hydrochloride; 10% fetal bovine serum; 1 mg/mL G418 sulfate; antibiotic-antimycotic; pH 7.4) were loaded with proprietary dye, from the FLIPR Calcium Assay Kit (Molecular Devices), prepared in assay buffer (Hanks Balanced Salts Solution, 20 mM HEPES, 0.1% BSA, 2.5 mM probenecid, pH 7.4), and incubated for 1 h at 37° C. Calcium mobilization determinations were performed at room temperature (23° C.).
# [1] = Inhibition of Acetyl-cyclic[Cys-Phe-Trp-Lys-(2-Nal)-Cys]-NH2 induced Ca2+ mobilization (FLIPR) in CHO cells transfected with rat UII receptor, read-out: IC50
# [2] = average value for the compound tested, read-out: Rat UII FLIPR Average IC50
inhibition at 10 µM [%],inhibition at 50 µM [%],IC50 [1],IC50 [2] [µM],Compound
25,78,15 µM,–,"O=C1c2cccc(N3CCN(Cc4ccccc4)CC3)c2C(=O)N1CCCn1ccnc1 [Cpd 47, 4-(4-benzyl-piperazin-1-yl)-2-(3-imidazol-1-yl-propyl)-isoindole-1,3-dione]"
15,81,21 µM,–,"COc1ccc(CN2C(=O)c3cccc(OCCNCc4ccccc4)c3C2=O)cc1OC [Cpd 54, 4-(2-benzylamino-ethoxy)-2-(3,4-dimethoxy-benzyl)-isoindole-1,3-dione]"
–,–,–,0.31,"COc1ccc(C(CCCNC(=O)Nc2cccs2)N2C(=O)c3cccc(N4CCN([C@H](C)c5ccccc5)CC4)c3C2=O)cc1OC (stereo partly drawn) [Cpd 120, 1-(4-(3,4-dimethoxy-phenyl)-4-{1,3-dioxo-4-[4-(1R)-(1-phenyl-ethyl)-piperazin-1-yl]-1,3-dihydro-isoindol-2-yl}-butyl)-3-thiophen-2-yl-urea]"
–,–,–,2.8,"COc1ccc(CN2C(=O)c3cccc(N4CCN(Cc5ccccn5)CC4)c3C2=O)cc1OC [Cpd 84, 2-(3,4-dimethoxy-benzyl)-4-(4-pyridin-2-ylmethyl-piperazin-1-yl)-isoindole-1,3-dione]"
47,87,9 µM,–,"COc1ccc(CN2C(=O)c3cccc(N4CCN(Cc5ccc(C)cc5)CC4)c3C2=O)cc1OC [Cpd 40, 2-(3,4-dimethoxy-benzyl)-4-[4-(4-methyl-benzyl)-piperazin-1-yl]-isoindole-1,3-dione]"
48,54,14 µM,–,"COc1ccc(CN2C(=O)c3cccc(N4CCN(Cc5cc(F)cc(F)c5)CC4)c3C2=O)cc1OC [Cpd 46, 4-[4-(3,5-difluoro-benzyl)-piperazin-1-yl]-2-(3,4-dimethoxy-benzyl)-isoindole-1,3-dione]"
50,97,10 µM,–,"O=C1c2cccc(N3CCN(Cc4ccccc4)CC3)c2C(=O)N1CCc1ccncc1 [Cpd 43, 4-(4-benzyl-piperazin-1-yl)-2-(2-pyridin-4-yl-ethyl)-isoindole-1,3-dione]"
19,58,30 µM,–,"COc1ccc(CN2C(=O)c3cccc(N4CCN(Cc5ccc(Cl)cc5)CC4)c3C2=O)cc1OC [Cpd 57, 4-[4-(4-chloro-benzyl)-piperazin-1-yl]-2-(3,4-dimethoxy-benzyl)-isoindole-1,3-dione]"
–,–,–,4.7,"COc1ccc(CN2C(=O)c3cccc(N4CCN(CC(C)C)CC4)c3C2=O)cc1OC [Cpd 82, 2-(3,4-dimethoxy-benzyl)-4-(4-isobutyl-piperazin-1-yl)-isoindole-1,3-dione]"
98,101,0.49 µM,–,"COc1ccc(CN2C(=O)c3cccc(N4CCN([C@@H](C)c5ccccc5)CC4)c3C2=O)cc1OC [Cpd 14, 2-(3,4-dimethoxy-benzyl)-4-[4-(1S)-(1-phenyl-ethyl)-piperazin-1-yl]-isoindole-1,3-dione]"
62,101,1.9 µM,–,"Cc1nn(C)c(C)c1CN1C(=O)c2cccc(N3CCN(Cc4ccccc4)CC3)c2C1=O [Cpd 23, 4-(4-benzyl-piperazin-1-yl)-2-(1,3,5-trimethyl-1H-pyrazol-4-ylmethyl)-isoindole-1,3-dione]"
41,78,16 µM,–,"COc1ccc(CN2C(=O)c3cccc(NCCNCc4ccccc4)c3C2=O)cc1OC [Cpd 48, 4-(2-benzylamino-ethylamino)-2-(3,4-dimethoxy-benzyl)-isoindole-1,3-dione]"
91,97,0.86 µM and 1.1 µM,–,"COc1ccc(CN2C(=O)c3cccc(N4CCN(Cc5c(F)cccc5F)CC4)c3C2=O)cc1OC [Cpd 16, 4-[4-(2,6-difluoro-benzyl)-piperazin-1-yl]-2-(3,4-dimethoxy-benzyl)-isoindole-1,3-dione]"
–,–,–,1.4,"COc1ccc(C(CCCNS(=O)(=O)c2csc3ccccc23)N2C(=O)c3cccc(N4CCN([C@H](C)c5ccccc5)CC4)c3C2=O)cc1OC (stereo partly drawn) [Cpd 116, benzo[b]thiophene-3-sulfonic acid (4-(3,4-dimethoxy-phenyl)-4-{1,3-dioxo-4-[4-(1R)-(1-phenyl-ethyl)-piperazin-1-yl]-1,3-dihydro-isoindol-2-yl}-butyl)-amide]"
100,106,0.21 µM,–,"COc1ccc(CN2C(=O)c3c(Cl)ccc(N4CCN([C@H](C)c5ccccc5)CC4)c3C2=O)cc1OC [Cpd 10, 4-chloro-2-(3,4-dimethoxy-benzyl)-7-[4-(1R)-(1-phenyl-ethyl)-piperazin-1-yl]-isoindole-1,3-dione]"
43,65,18 µM,–,"COc1ccc(CN2C(=O)c3cccc(N4C[C@@H](C)N(C(C)c5ccccc5)[C@@H](C)C4)c3C2=O)cc1OC (stereo partly drawn) [Cpd 51, (3R,5S)-2-(3,4-dimethoxy-benzyl)-4-[3,5-dimethyl-4-(1-phenyl-ethyl)-piperazin-1-yl]-isoindole-1,3-dione]"
65,89,4.5 µM,–,"COc1ccc(CN2C(=O)c3cccc(N4CCN(Cc5ccccc5Cl)CC4)c3C2=O)cc1OC [Cpd 31, 4-[4-(2-chloro-benzyl)-piperazin-1-yl]-2-(3,4-dimethoxy-benzyl)-isoindole-1,3-dione]"
–,–,–,2.6,"COc1ccc(C(CCCNS(=O)(=O)c2cc(Cl)sc2Cl)N2C(=O)c3cccc(N4CCN([C@H](C)c5ccccc5)CC4)c3C2=O)cc1OC (stereo partly drawn) [Cpd 113, 2,5-dichloro-thiophene-3-sulfonic acid (4-(3,4-dimethoxy-phenyl)-4-{1,3-dioxo-4-[4-(1R)-(1-phenyl-ethyl)-piperazin-1-yl]-1,3-dihydro-isoindol-2-yl}-butyl)-amide]"
–,–,–,0.27,"COc1ccc(C(CCNC(=O)Nc2cccs2)N2C(=O)c3cccc(N4CCN([C@H](C)c5ccccc5)CC4)c3C2=O)cc1OC (stereo partly drawn) [Cpd 121, 1-(3-(3,4-dimethoxy-phenyl)-3-{1,3-dioxo-4-[4-(1R)-(1-phenyl-ethyl)-piperazin-1-yl]-1,3-dihydro-isoindol-2-yl}-propyl)-3-thiophen-2-yl-urea]"
64,94,5.9 µM,–,"COc1cc(CN2C(=O)c3cccc(N4CCN(Cc5ccccc5)CC4)c3C2=O)cc(OC)c1OC [Cpd 34, 4-(4-benzyl-piperazin-1-yl)-2-(3,4,5-trimethoxy-benzyl)-isoindole-1,3-dione]"
58,61,16 µM,–,"COc1ccc(C(c2ccccc2)N2C(=O)c3cccc(N4CCN([C@H](C)c5ccccc5)CC4)c3C2=O)cc1OC (stereo partly drawn) [Cpd 49, 2-[(3,4-dimethoxy-phenyl)-phenyl-methyl]-4-[4-(1R)-(1-phenyl-ethyl)-piperazin-1-yl]-isoindole-1,3-dione]"
–,–,–,0.92,"COc1ccc(C(CCCNS(=O)(=O)c2cc(S(=O)(=O)c3ccccc3)cs2)N2C(=O)c3cccc(N4CCN([C@H](C)c5ccccc5)CC4)c3C2=O)cc1OC (stereo partly drawn) [Cpd 92, 4-benzenesulfonyl-thiophene-2-sulfonic acid (4-(3,4-dimethoxy-phenyl)-4-{1,3-dioxo-4-[4-(1R)-(1-phenyl-ethyl)-piperazin-1-yl]-1,3-dihydro-isoindol-2-yl}-butyl)-amide]"
22,78,21 µM,–,"COc1ccc(CN2C(=O)c3cccc(OCCN(C)Cc4ccccc4)c3C2=O)cc1OC [Cpd 53, 4-[2-(benzyl-methyl-amino)-ethoxy]-2-(3,4-dimethoxy-benzyl)-isoindole-1,3-dione]"
63,82,6.5 µM,–,"COc1ccc(CN2C(=O)c3cccc(N4CCN(Cc5cccc(C)c5)CC4)c3C2=O)cc1OC [Cpd 36, 2-(3,4-dimethoxy-benzyl)-4-[4-(3-methyl-benzyl)-piperazin-1-yl]-isoindole-1,3-dione]"

Compound,inhibition at 10 µM [%],inhibition at 50 µM [%],IC50 [1],IC50 [2] [µM]
"COc1ccc(N2C(=O)c3cccc(N4CC5CCC(C4)N5Cc4ccccc4)c3C2=O)cc1OC [Cpd 61, 4-(8-benzyl-3,8-diaza-bicyclo[3.2.1]oct-3-yl)-2-(3,4-dimethoxy-phenyl)-isoindole-1,3-dione]",31,49,48 µM,–
